Converted amounts (≈) assume the structure as drawn.
Columns and labels:
[1] = tested on: replicating Mycobacterium tuberculosis; assay: MIC, microplate Alamar blue assay (MABA), 8 day; format: cell-based; conditions: 192 h, read-out: MIC MABA (aerobic)
[2] = tested on: M. tuberculosis bacteria in the non-replicating state; assay: microbe, parasite or virus in culture; format: cell-based; conditions: Mycobacterium tuberculosis, 264 h, low oxygen, 11 day, read-out: MIC LORA (anaerobic)
[3] = in vivo; conditions: mouse, po, 40 mg/kg
[4] = tested on: M. tuberculosis Erdman; design: species or system BALB/c mice; conditions: mouse, po, 100 mg/kg
[5] = tested on: M. tuberculosis Erdman; format: in vivo, BALB/c mice; conditions: for In vivo efficacy vs PA-824, Chronic: mouse, po, 100 mg/kg
[6] = CD-1 mice, oral, 40 mg/kg; for t½ (h) plasma: suspension in 0.5% carboxymethylcellulose/0.08% Tween 80

Row | Compound | MIC [1] [µM] | MIC [2] [µM] | AUC [3] [µg·h/mL] | In vivo efficacy vs PA-824, Acute [4] | In vivo efficacy vs PA-824, Chronic [5] | Cmax plasma [6] [ng/mL] | t½ (h) plasma [6] [h] | Kp [3] | log reduction in CFU ([5]; chronic assay, lungs, vs vehicle, oral 100 mg/kg)
1 | O=[N+]([O-])c1cn2c(n1)OC[C@@H](OCc1ccc(C#Cc3ccc(OC(F)(F)F)cc3)nc1)C2 [compound 33, (6S)-2-Nitro-6-[(6-{[4-(trifluoromethoxy)phenyl]ethynyl}-3-pyridinyl)methoxy]-6,7-dihydro-5H-imidazo[2,1-b][1,3]oxazine] | 0.02 (≈ 0.00921 µg/mL) | 0.94 (≈ 0.433 µg/mL) |  |  |  |  |  |  | 
2 | O=[N+]([O-])c1cn2c(n1)OC[C@@H](OCc1ccc(C#Cc3ccc(OC(F)(F)F)cc3)cc1)C2 [compound 32, (6S)-2-Nitro-6-[(4-{[4-(trifluoromethoxy)phenyl]ethynyl}benzyl)oxy]-6,7-dihydro-5H-imidazo[2,1-b][1,3]oxazine] | 0.017 (≈ 0.00781 µg/mL) | > 128 |  |  |  |  |  |  | 
3 | O=[N+]([O-])c1cn2c(n1)OC[C@@H](OCc1cnc(-c3ccc(OC(F)(F)F)cc3)nc1)C2 [compound 16] | 0.027 (≈ 0.0118 µg/mL) | 1.8 (≈ 0.787 µg/mL) | 131 | >1120 |  |  |  |  | 
4 | Cn1nc(-c2ccc(OC(F)(F)F)cc2)cc1CO[C@@H]1COc2nc([N+](=O)[O-])cn2C1 [compound 11] | 0.06 (≈ 0.0264 µg/mL) | 0.58 (≈ 0.255 µg/mL) | 92.4 | 12 | 0.9 |  |  |  | 
5 | O=[N+]([O-])c1cn2c(n1)OC[C@@H](OCc1cnc(-c3ccc(OC(F)(F)F)cc3)cn1)C2 [compound 4, (6S)-2-nitro-6-({5-[4-(trifluoromethoxy)phenyl]-2-pyrazinyl}methoxy)-6,7-dihydro-5H-imidazo[2,1-b][1,3]oxazine] | 0.023 (≈ 0.0101 µg/mL) | 1 (≈ 0.437 µg/mL) | > 324 | 167 |  | 9600 | 7.2 |  | 
6 | O=[N+]([O-])c1cn2c(n1)OC[C@@H](OCc1ncc(-c3ccc(OC(F)(F)F)cc3)cn1)C2 [compound 29] | 0.11 (≈ 0.0481 µg/mL) | 1.9 (≈ 0.831 µg/mL) |  |  |  |  |  |  | 
7 | O=[N+]([O-])c1cn2c(n1)OC[C@@H](OCc1ccc(-c3ccc(OC(F)(F)F)c(Cl)c3)nc1)C2 [compound 28, (6S)-6-({6-[3-Chloro-4-(trifluoromethoxy)phenyl]-3-pyridinyl}methoxy)-2-nitro-6,7-dihydro-5H-imidazo[2,1-b][1,3]oxazine] | 0.017 (≈ 0.008 µg/mL) | 1 (≈ 0.471 µg/mL) | 284 | >933 |  |  |  |  | 
8 | O=[N+]([O-])c1cn2c(n1)OC[C@@H](OCc1cnn(-c3ccc(OC(F)(F)F)cc3)c1)C2 [compound 27] | 0.15 (≈ 0.0638 µg/mL) | 1.8 (≈ 0.766 µg/mL) |  |  |  |  |  |  | 
9 | O=[N+]([O-])c1cn2c(n1)OC[C@@H](OCc1ccc(-c3ccc(OC(F)(F)F)cc3)cc1)C2 [compound 3, (6S)-2-Nitro-6-{[4'-(trifluoromethoxy)[1,1'-biphenyl]-4-yl]methoxy}-6,7-dihydro-5H-imidazo[2,1-b][1,3]oxazine] | 0.035 (≈ 0.0152 µg/mL) | 1.3 (≈ 0.566 µg/mL) | 218 | >205 | 12 |  |  |  | 
10 | O=[N+]([O-])c1cn2c(n1)OC[C@@H](OCc1ccc(-c3ccc(OC(F)(F)F)c(F)c3)cc1)C2 [compound 2, (6S)-6-{[3'-Fluoro-4'-(trifluoromethoxy)[1,1'-biphenyl]-4-yl]methoxy}-2-nitro-6,7-dihydro-5H-imidazo[2,1-b][1,3]oxazine] | 0.03 (≈ 0.0136 µg/mL) | 0.34 (≈ 0.154 µg/mL) | > 513 | 419 |  |  |  | > 1 | 
11 | O=[N+]([O-])c1cn2c(n1)OC[C@@H](OCc1ccc(-c3ccc(OC(F)(F)F)c(F)c3)cn1)C2 [compound 22, (6S)-6-({5-[3-Fluoro-4-(trifluoromethoxy)phenyl]-2-pyridinyl}methoxy)-2-nitro-6,7-dihydro-5H-imidazo[2,1-b][1,3]oxazine] | 0.05 (≈ 0.0227 µg/mL) | 1.3 (≈ 0.591 µg/mL) | 155 | 233 |  | 7600 | 8.4 |  | 
12 | O=[N+]([O-])c1cn2c(n1)OC[C@@H](OCc1ccc(-c3ccc(OC(F)(F)F)cc3)c(F)c1)C2 [compound 15, (6S)-6-{[2-Fluoro-4'-(trifluoromethoxy)[1,1'-biphenyl]-4-yl]methoxy}-2-nitro-6,7-dihydro-5H-imidazo[2,1-b][1,3]oxazine] | 0.055 (≈ 0.0249 µg/mL) | 0.51 (≈ 0.231 µg/mL) |  | >933 |  |  |  |  | 
13 | O=[N+]([O-])c1cn2c(n1)OC[C@@H](OCc1ccc(-c3ccc(OC(F)(F)F)cc3)nn1)C2 [compound 24] | 0.075 (≈ 0.0328 µg/mL) | 1.7 (≈ 0.743 µg/mL) | 93.9 | 11 |  |  | 2.9 |  | 
14 | O=[N+]([O-])c1cn2c(n1)OC[C@@H](OCc1ccc(-c3ccc(C(F)(F)F)cn3)cc1F)C2 [compound 14, (6S)-6-({2-Fluoro-4-[5-(trifluoromethyl)-2-pyridinyl]benzyl}oxy)-2-nitro-6,7-dihydro-5H-imidazo[2,1-b][1,3]oxazine] | 0.055 (≈ 0.0241 µg/mL) | 2.3 (≈ 1.01 µg/mL) | 148 | 52 |  |  |  |  | 
15 | O=[N+]([O-])c1cn2c(n1)OC[C@@H](OCc1ccc(-c3ccc(OC(F)(F)F)cc3Cl)cc1)C2 [compound 1, (6S)-6-{[2'-Chloro-4'-(trifluoromethoxy)[1,1'-biphenyl]-4-yl]methoxy}-2-nitro-6,7-dihydro-5H-imidazo[2,1-b][1,3]oxazine] | 0.04 (≈ 0.0188 µg/mL) | 0.78 (≈ 0.366 µg/mL) | 3360 | 23 | 2.1 |  |  |  | 
16 | O=[N+]([O-])c1cn2c(n1)OC[C@@H](OC/C=C/c1ccc(-c3ccc(OC(F)(F)F)cc3)cc1)C2 [compound 19, (6S)-2-Nitro-6-({(2E)-3-[4'-(trifluoromethoxy)[1,1'-biphenyl]-4-yl]-2-propenyl}oxy)-6,7-dihydro-5H-imidazo[2,1-b][1,3]oxazine] | 0.063 (≈ 0.0291 µg/mL) | > 64 |  |  |  |  |  |  | 
17 | O=C(O[C@@H]1COc2nc([N+](=O)[O-])cn2C1)N1CCN(c2ccc(OC(F)(F)F)cc2)CC1 [compound 20] | 0.13 (≈ 0.0595 µg/mL) | 1.1 (≈ 0.503 µg/mL) | 169 | 5.2 |  | 2500 | 10.5 |  | 
18 | O=[N+]([O-])c1cn2c(n1)OC[C@@H](OCc1ccc(C#Cc3ccc(OC(F)(F)F)cc3)cn1)C2 [compound 18, (6S)-2-Nitro-6-[(5-{[4-(trifluoromethoxy)phenyl]ethynyl}-2-pyridinyl)methoxy]-6,7-dihydro-5H-imidazo[2,1-b][1,3]oxazine] | 0.02 (≈ 0.00921 µg/mL) | 1.4 (≈ 0.645 µg/mL) | 235 | >933 |  |  |  |  | 
19 | O=[N+]([O-])c1cn2c(n1)OC[C@@H](Oc1ccc(-c3ccc(OC(F)(F)F)cc3)cc1)C2 [compound 13, (6S)-2-Nitro-6-{[4'-(trifluoromethoxy)[1,1'-biphenyl]-4-yl]oxy}-6,7-dihydro-5H-imidazo[2,1-b][1,3]oxazine] | 0.05 (≈ 0.0211 µg/mL) | 1.3 (≈ 0.548 µg/mL) | 347 | 8.1 |  | 1860 |  |  | 
20 | O=[N+]([O-])c1cn2c(n1)OC[C@@H](OCc1ccc(-c3ccc(C(F)(F)F)nc3)cc1F)C2 [compound 23, (6S)-6-({2-Fluoro-4-[6-(trifluoromethyl)-3-pyridinyl]benzyl}oxy)-2-nitro-6,7-dihydro-5H-imidazo[2,1-b][1,3]oxazine] | 0.13 (≈ 0.057 µg/mL) | 0.68 (≈ 0.298 µg/mL) | 55.4 | 8.8 |  |  |  |  | 
21 | O=[N+]([O-])c1cn2c(n1)OC[C@@H](OCc1ccc(OC(F)(F)F)cc1)C2 [PA-824, reference compound] | 0.5 (≈ 0.18 µg/mL) | 2.6 (≈ 0.934 µg/mL) | 296 | 1.0 | 1.0 |  |  |  | ~ 2 log
22 | O=[N+]([O-])c1cn2c(n1)OC[C@@H](OCc1ccc(-c3ccc(F)cn3)cc1)C2 [compound 26, (6S)-6-{[4-(5-Fluoro-2-pyridinyl)benzyl]oxy}-2-nitro-6,7-dihydro-5H-imidazo[2,1-b][1,3]oxazine] | 0.035 (≈ 0.013 µg/mL) | 1.3 (≈ 0.481 µg/mL) |  |  |  |  |  |  | 
23 | O=[N+]([O-])c1cn2c(n1)OC[C@@H](OCc1ccc(-c3ccc(OC(F)(F)F)c(F)c3)nc1)C2 [compound 21, (6S)-6-({6-[3-Fluoro-4-(trifluoromethoxy)phenyl]-3-pyridinyl}methoxy)-2-nitro-6,7-dihydro-5H-imidazo[2,1-b][1,3]oxazine] | 0.025 (≈ 0.0114 µg/mL) | 0.93 (≈ 0.423 µg/mL) | 251 | >840 |  | 7000 |  |  | 

Source: patent publication EP2459571B1, “NITROIMIDAZOOXAZINES AND THEIR USES IN ANTI-TUBERCULAR THERAPY” (priority 2009, dated 2011)
